Tests used:
[1] = tested on: rat cerebellar granule neurons (CGNs); assay: Hypoxia/reoxygenation (H/R) induced death of in vitro cultured cerebellar granule neurons; assay type: cell-based; conditions: for CGNs morphology under inverted fluorescence microscope: pre-treated 3 h with 10 μM MK801 or 12 μM YC-1 or 12 μM YC-2, then 3 h hypoxia and 24 h reoxygenation
Method: 1) Culture of Rat Cerebellar Granule Neurons (CGNs)
According to Yan, etc, the neurons were prepared as follows:
(1) A clean 7-8 d SD rat weighing about 15-20 g was taken and the cerebella was separated under sterile condition.
(2) The meninges and vessels were gotten rid of in Kreb's anatomy solution (Ca^2+ and Mg^2+ free).
(3) The cerebella was sheared into pieces of 1 mm^3 with ophthalmic scissors.
(4) Digested in 0.25 g/L trypsin solution for 15 min at 37.
(5) The digestion was stopped with solution containing 0.5 g/L trypsin inhibitor and 0.05 g/L Dnase I and pipetted up and down to get single cell suspension.
(6) The single cell suspension was centrifuged at 200 g for 5 min, the precipitation was rinsed once with rinse solution.
(7) Span down again at 200 g for 5 min, the supernatant was discarded.
(8) The cell pellet was diluted to cell density of 1.5-1.8×10^6 cells/ml with BME medium containing 10% (v/v) FBA and 25 mM KCl.
(9) They were inoculated into cell culture dishes pre-coated with polylysine and incubated at 370 incubator with 5% CO2.
(10) Twenty-four hours after inoculation, 10 μmol/L Ara-C was added to inhibit non-neuron cells' growth and proliferation and to make the purity of CGNs above 95%.
(11) Glucose was added to 5 mM on day 7 incubation to supplement energy needed by cell metabolism.
(12) The experiment on day 8.
2). Establishment of CGNs Hypoxia/Reoxygenation (H/R) Injury Model
Referred to Seko (Seko Y, To be K, Ueki K, et al. Hypoxia and hypoxia/reoxygenation activate Raf-1, mitogen-activated protein kinase kinase, mitogen-activated protein kinases, and S6 kinase in cultured rat cardiac myocytes. Circ Res. 1996 January; 78(1):82-90) etc for the establishment method:
(1) On day 8, the treated CGNs were put in airtight box with oxygen consumption reagent and indicator and incubated at 37° for 3 h.
(2) The cells were transferred to 370 incubator with 5% CO2 for reoxygenation treatment.
(3). Cell morphological observation and neuron viability measurement
The following were done referring to Yan (Yan G M, Irwin R P, Lin S Z, et al. Diphenylhydantoin induces apoptotic cell death of cultured rat cerebellar granule neurons. J Pharmacol Exp Ther, 1995, 274(2): 983-8) et al.:
(1) CGNs were cultured in 35 mm dishes, on day 8, the medium was removed after various factors treatment, the cells were rinsed twice with 4 PBS containing Ca^2+ and Mg^2+.
(2) The cells were fixed with 40 g/L paraformaldehyde (40, dissolved in PBS) for 10 min.
(3) The fixation solution was removed, the cells were rinsed twice with distilled water, air dried at 4°.
(4) The cell morphological change was observed and randomly photographed under inverted fluorescence microscope (Olympus).

[2] = tested on: rat cerebellar granule neurons (CGNs); assay: Repolarization (low potassium, LK) induced death of in vitro cultured cerebellar granule neurons; assay type: cell-based
Method: The methods for rat CGNs cell culture, cellular morphologic observation and neuronal viability measurement were the same as above. Then check the in vitro cultured cerebellar granule neurons death through agarose gel electrophoresis according to reference:
(1) CGNs in […] dishes were inoculated.
(2) On day 8, 24 h after adding various medicines, the medium was removed, the cells were rinsed twice with PBS.
(3) The collected cells were spun down with a low temperature high speed centrifuge (Biofuge22R, Heraeus, Germany) at 5000 rpm, 4° for 5 min.
(4) the cell pellet was resuspended with 600 μl buffer containing 10 mmol/L Tris-HCl, 10 mmol/L EDTA and 2 g/L Triton X-100 (pH 7.5) and incubated for 15 min.
(6) The supernatant was extracted once with equal volume of phenol and spun down.
(7) The supernatant was extracted once with equal volume of phenol-chloroform (1:1), spun down.
(8) The supernatant was taken, 300 mmol/L Sodium Acetate and equal volume of isopropanol were added and precipitated for overnight.
(9) The pellet was spun down and rinsed 2-3 times with 70% ethanol.
(10) After drying, some TE (Tris 10 mmol L^−1, EDTA 1.0 mmol L^−1, pH 7.4, and 0.6 g·L^−1 RNase A) were added and incubated at 37° for 30 min.
(11) The samples were analyzed with 20 g/L agarose gel electrophoresis for 1 h.
(12) Dyed with ethidium bromide and photographed under UV light.

[3] = tested on: SD rats with permanent middle cerebral artery occlusion (MCAO); assay: MCAO induced rat cerebral ischemia model; assay type: in vivo
Method: Method: Preparation of Rat Middle Cerebral Artery Occlusion (MCAO) Model
25 healthy male SD rats were divided into 3 groups randomly: YC-1 group (n=11): 10 min, 6 h, 24 h and 7 d after occluding the middle cerebral artery, 12 mg/Kg YC-1 was continuously injected intraperitoneally. DMSO group (n=11): same volume of DMSO (1 ml/Kg) was injected in the same way. Sham group (n=3): just very short intraluminal thread was inserted and didn't occlude the MCA.
The following method was a modification of Zea Longa's method (Longa E Z, Weinstein P R, Carlson S, Cummins R. Reversible middle cerebral artery occlusion without craniectomy in rats. Stroke, 1989, 20: 84-91).
(1) The rats drinked freely but fasted one night before the operation.
(2) 10 min before anesthesia, atropine sulfate (0.5 mg/Kg) was intraperitoneally (ip) injected.
(3) Narcotized the rat with ip injected 10% chloral hydrate, 3.5 ml anesthetic per Kg rat; The areflexia of hindlimb retraction and corneal were used as anesthesia index. […]
(7) Rectum temperature was measured by using Meikangti electronic temperature measure instrument the whole process and it was strictly controlled at 36.5-37.5°. […]

[4] = tested on: New Zealand white rabbits with spinal cord ischemia; assay: Abdominal aorta clipping induced rabbit spinal cord ischemia model; assay type: in vivo; conditions: 8 mg/Kg intravenous 30 min before ischemia
Method: Method: Preparation of spinal cord ischemia model.
24 male New Zealand white rabbits were divided evenly into 3 groups (n=8):
YC-1 group: 30 min before spinal cord ischemia, 8 mg/Kg YC-1 was intravenous injected through the rabbit's ear. DMSO group: same volume of DMSO (1 ml/Kg) was injected in the same way.
Sham group: the abdominal aorta was exposed but wasn't clipped.
Referring to Johnson etc, the model was prepared as follows:
(1) The rabbits drinked freely but fasted one night before the operation.
(2) The rabbit was anesthetized by injecting 3% sodium pentobarbital (30 mg/Kg) by ear intravenous. On the other side of the ear a vein-detaining needle (24 G) was set for medicine and other fluid infusion.
(3) An artery-detaining needle (24 G) was set in the right ear artery for monitoring the proximal arterial pressure and blood sampling during the operation.
(4) An artery-detaining needle (24 G) was set in a femoral artery for monitoring the distal arterial pressure during the operation.
(5) The rabbit was supinely fixed and incised at the median abdomen; the abdominal aorta was exposed.
(6) Injected heparin (150 U/Kg) through the vein-detaining needle, then the abdominal aorta was clipped at the 0.5-1.0 cm spot below origin of the left renal artery to cause spinal cord ischemia.
(7) Once the abdominal aorta was blocked, the distal arterial pressure decreased immediately and the femoral arterial pulsation disappeared.
(8) The clip was removed 20 min after ischemia and the abdomen was sutured.
(9) Then intramuscularly injected 40,000 U gentamicin, the rabbit was returned back to cage and observed for 48 h.
(10) The proximal arterial pressure, distal arterial pressure and heart rate (Spacelab, US) were continuously monitored during the operation. Rectum temperature was maintained at 38.5±0.5° by using heating pad and roasting lamp.
(11) Blood gas (AVL-2, Switzerland) and glucose (One Touch II, USA) were monitored by ear artery blood sampling 10 min before ischemia, 10 min after ischemia and 10 min after reperfusion.

[5] = tested on: rat cerebellar granule neurons (CGNs); assay: Glutamic acid (Glu) induced death of in vitro cultured cerebellar granule neurons; assay type: cell-based
From the text: (1) Isolatation and primary culture of rat CGNs.
(2) Morphology observation of neuron cell body and processes under phase contrast microscopy.
(3) Analysis of neuronal metabolic activity and viability using fluorescein diacetate (FDA) staining.

Row | SMILES | viability at 10 µM ([1]; Rattus norvegicus, Neuron, 10 μM MK801 or 12 μM YC-1 or 12 μM YC-2, then H/R, H/R alone 16.56±3.21%, read-out: neuronal viability (FDA dye)) [%] | CGNs morphology under inverted fluorescence microscope [1] | CGNs morphology (cell bodies and processes) ([2]; 12 μM added 3 h before and at change to 5 mM KCl serum free medium, 24 h) | CGNs survived (FDA staining) ([2]; 12 μM added 3 h before and at change to 5 mM KCl serum free medium, 24 h, low potassium alone 40.2±14.04%) [%] | DNA fragments produced from LK induced CGNs apoptosis (agarose gel electrophoresis) ([2]; FIG. 18) | brain tissue colour and morphology by visual inspection ([3]; rat MCAO, 12 mg/Kg intraperitoneally, DMSO group showed obvious pallor and swelling) | infarct size (TTC dye) ([3]; rat permanent MCAO, 12 mg/Kg YC-1 intraperitoneally at 10 min, 6 h, 24 h and 7 d after occlusion, DMSO group 62±8%) [%] | neuronal viability (FDA dye) ([1]; 10 μM MK801 or 12 μM YC-1 or 12 μM YC-2, then H/R, H/R alone 16.56±3.21%) [%] | nuclear morphology (Hoechst33258 dye) ([1]; 12 μM, then H/R treatment) | rabbits able to stand (hindlimb function) ([4]; rabbit spinal cord ischemia 20 min, n=8, no rabbit in DMSO group could stand) | neurological function score ([4]; rabbit spinal cord ischemia, each observation time point, versus DMSO group, p<0.05) | lumbar spinal cord injury (histopathological examination) ([4]; rabbit spinal cord ischemia, versus DMSO group) | number of normal spinal cord anterior horn neurons ([4]; rabbit spinal cord ischemia, versus DMSO group, p<0.01) | Glu induced CGNs apoptosis (phase contrast microscopy) ([5]; 12 μM added 1 h before 150 μM Glu, observed 24 h later) | CGNs' viability (FDA staining) ([5]; 12 μM, 150 μM Glu 24 h, Glu control group 29.5±8.23%) [%]
1 | C[C@]12N[C@H](Cc3ccccc31)c1ccccc12 [MK801, reference compound] | 86.7 ± 3.21 | Most CGNs cell body kept intact, plump and lucent |  |  |  |  |  |  |  |  |  |  |  |  | 
2 | C=C(CC[C@@H](C)[C@H]1CC[C@H]2[C@@H]3C[C@@H](O)[C@@]4(O)C[C@@H](O)CC[C@]4(CO)[C@H]3CC[C@]12C)C(C)C [YC-1, 24-methylene-cholest-3β,5α,6β,19-tetrol] |  | Most CGNs cell body kept intact, plump and lucent | most CGNs kept intact cell bodies and processes | 94.3±14.02 | can reduce DNA fragments | no obvious pallor and swelling | 32±11 | 84.29±1.26 | Most CGNs showed normal nuclear morphology and even chromatin distribution | Six rabbits in the CPA (YC-1) group could stand | obviously higher than that in DMSO group | obviously relieved | increased evidently | obviously inhibited Glu induced CGNs apoptosis | 92.6±2.59

Source: patent US20100152150A1, “THE APPLICATION OF MARINE STEROID IN PREPARING THE MEDICINE OF TREATING NEURONS DAMAGING” (priority 2006, published 2010)
